#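 All cell lines were grown in 96-well plates and treated with compound for 48 hours. At the GI50, growth is halved. At the TGI there is no net growth.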
# What was measured:
# Assay in all cases: NCI-60 cell line screen, 48 h
# [1] = system: SF-268 CNS
# [2] = system: OVCAR-5 ovarian
# [3] = system: HCT-116 colon
# [4] = system: KM12 colon
# [5] = system: HOP-92 NSCLC
# [6] = system: UACC-62 melanoma
# [7] = system: HS 578T breast
# [8] = system: SF-539 CNS
# [9] = system: MALME-3M melanoma
# [10] = system: NCI-H460 lung
# [11] = system: NCI/ADR-RES ovarian
# [12] = system: HL-60(TB) leukemia
# [13] = system: NCI-H522 lung
# [14] = system: UACC-257 melanoma
# [15] = system: U251 CNS
# [16] = system: A498 renal
# [17] = system: SK-MEL-2 melanoma
# [18] = system: NCI-H23 lung
# [19] = system: DU-145 prostate
# [20] = system: PC-3 prostate
# [21] = system: CCRF-CEM leukemia
# [22] = system: EKVX NSCLC
# [23] = system: 786-0 renal
# [24] = system: IGROV1 ovarian
# [25] = system: K-562 leukemia
# [26] = system: MDA-MB-231 breast
# [27] = system: SW-620 colon
# [28] = system: HCC-2998 colon
# [29] = system: SNB-19 CNS
# [30] = system: MOLT-4 leukemia
# [31] = system: SN12C renal
# [32] = system: MDA-MB-468 breast
# [33] = system: HOP-62 NSCLC
# [34] = system: BT-549 breast
# [35] = system: SF-295 CNS
# [36] = system: SR leukemia
# [37] = system: ACHN renal
# [38] = system: HCT-15 colon
# [39] = system: SK-MEL-5 melanoma
# [40] = system: T-47D breast
# [41] = system: OVCAR-8 ovarian
# [42] = system: M14 melanoma
# [43] = system: MCF7 breast
# [44] = system: OVCAR-4 ovarian
# [45] = system: SNB-75 CNS
# [46] = system: A549 NSCLC
# [47] = system: RXF 393 renal
# [48] = system: UO-31 renal
# [49] = system: TK-10 renal
# [50] = system: OVCAR-3 ovarian
# [51] = system: CAKI-1 renal
# [52] = system: NCI-H226 lung
# [53] = system: SK-MEL-28 melanoma
# [54] = system: RPMI-8226 leukemia
# [55] = system: MDA-MB-435
# [56] = system: LOX IMVI melanoma
# [57] = system: SK-OV-3 ovarian
# [58] = system: HT29 colon
# [59] = system: COLO 205 colon
smiles,measurement,setting,value
CC/C(=C(\c1ccc(O)cc1)c1ccc(OCCN(C)C(=O)COCCNC(=O)Cc2ccc3c(c2)CN([C@@H]2CCC(=O)NC2=O)C3=O)cc1)c1ccccc1,GI50,[1],5.38 µM
same,TGI,[1],> 100 µM
same,GI50,[2],> 57.6 µM
same,TGI,[2],> 100 µM
same,GI50,[3],> 85.7 µM
same,TGI,[3],> 100 µM
same,GI50,[4],8.5 µM
same,TGI,[4],> 100 µM
same,GI50,[5],0.177 µM
same,TGI,[5],3.05 µM
same,GI50,[6],54.2 µM
same,TGI,[6],> 100 µM
same,GI50,[7],0.672 µM
same,TGI,[7],11.8 µM
same,GI50,[8],> 62.6 µM
same,TGI,[8],> 100 µM
same,GI50,[9],0.306 µM
same,TGI,[9],2.49 µM
same,GI50,[10],> 100 µM
same,TGI,[10],> 100 µM
same,GI50,[11],> 100 µM
same,TGI,[11],> 100 µM
same,GI50,[12],0.0309 µM
same,TGI,[12],0.659 µM
same,GI50,[13],> 21.6 µM
same,TGI,[13],> 100 µM
same,GI50,[14],> 100 µM
same,TGI,[14],> 100 µM
same,GI50,[15],> 74.9 µM
same,TGI,[15],> 100 µM
same,GI50,[16],38.6 µM
same,TGI,[16],> 100 µM
same,GI50,[17],6.14 µM
same,TGI,[17],> 91.8 µM
same,GI50,[18],> 93.6 µM
same,TGI,[18],> 100 µM
same,GI50,[19],> 100 µM
same,TGI,[19],> 100 µM
same,GI50,[20],0.703 µM
same,TGI,[20],> 100 µM
same,GI50,[21],0.995 µM
same,GI50,[22],> 47 µM
same,TGI,[22],> 100 µM
same,GI50,[23],51.7 µM
same,TGI,[23],> 100 µM
same,GI50,[24],0.433 µM
same,TGI,[24],> 100 µM
same,GI50,[25],16 µM
same,TGI,[25],> 100 µM
same,GI50,[26],0.142 µM
same,TGI,[26],0.801 µM
same,GI50,[27],1.9 µM
same,TGI,[27],> 100 µM
same,GI50,[28],1.7 µM
same,TGI,[28],> 82.3 µM
same,GI50,[29],1.83 µM
same,TGI,[29],> 100 µM
same,GI50,[30],0.0517 µM
same,TGI,[30],1.1 µM
same,GI50,[31],2.27 µM
same,TGI,[31],> 93 µM
same,GI50,[32],0.0374 µM
same,TGI,[32],0.266 µM
same,GI50,[33],2.28 µM
same,TGI,[33],19.1 µM
same,GI50,[34],0.15 µM
same,TGI,[34],0.743 µM
same,GI50,[35],> 100 µM
same,TGI,[35],> 100 µM
same,GI50,[36],13.5 µM
same,TGI,[36],> 74 µM
same,GI50,[37],> 100 µM
same,TGI,[37],> 100 µM
same,GI50,[38],> 88.1 µM
same,TGI,[38],> 100 µM
same,GI50,[39],6.78 µM
same,TGI,[39],73.9 µM
same,GI50,[40],0.0259 µM
same,TGI,[40],4.61 µM
same,GI50,[41],1.56 µM
same,TGI,[41],33.4 µM
same,GI50,[42],30.8 µM
same,TGI,[42],> 100 µM
same,GI50,[43],0.104 µM
same,TGI,[43],> 100 µM
same,GI50,[44],11.2 µM
same,TGI,[44],> 100 µM
same,GI50,[45],0.316 µM
same,TGI,[45],> 94.8 µM
same,GI50,[46],46.2 µM
same,TGI,[46],> 100 µM
same,GI50,[47],4.19 µM
same,TGI,[47],72.8 µM
same,GI50,[48],> 100 µM
same,TGI,[48],> 100 µM
same,GI50,[49],> 100 µM
same,TGI,[49],> 100 µM
same,GI50,[50],15.2 µM
same,TGI,[50],> 100 µM
same,GI50,[51],55.1 µM
same,TGI,[51],> 100 µM
same,GI50,[52],2.35 µM
same,TGI,[52],> 26.7 µM
same,GI50,[53],21.6 µM
same,TGI,[53],> 100 µM
same,GI50,[54],5.07 µM
same,TGI,[54],> 100 µM
same,GI50,[55],17.8 µM
same,TGI,[55],> 100 µM
same,GI50,[56],> 84.5 µM
same,TGI,[56],> 100 µM
same,GI50,[57],10.7 µM
same,TGI,[57],> 100 µM
same,GI50,[58],> 57.6 µM
same,TGI,[58],> 100 µM
same,GI50,[59],2.11 µM
same,TGI,[59],33.3 µM

# Reference: PubChem BioAssay (NCI)
